Measured values as given in publication PMC8632988, “Inhibition of SYK and cSrc kinases can protect bone and cartilage in preclinical models of osteoarthritis and rheumatoid arthritis” (Scientific Reports, 2021).
Several values for one entry are separate records, joined by “and”; a condition that tells them apart may be missing. Identical values can stand only once.

System: DBA/1 mice, CIA model
Experiment: Collagen-induced arthritis model in mice
Assay type: in vivo, mouse
Conditions: QD
Description: Collagen-induced arthritis (CIA) model was performed at Bolder BioPATH, USA. Study design and animal usage was approved by Bolder BioPATH’s Institutional Animal Care and Use Committee. CIA was induced in 6–7 week old male DBA/1 mice with body weight of 15–26 g (Harlan, Inc) by intradermal injection of Freund’s Complete Adjuvant (Difco) containing bovine type II collagen (Bolder BioPATH) on day 0 and again on day 21 according to the standard protocol. […] After that mice were randomized into six groups: a control group of four, vehicle group and four treatment groups of ten mice each. […] Each paw was scored daily for inflammation. Therapeutic and prophylactic paws were considered. At study termination mice were euthanized by CO2 inhalation followed by cervical dislocation. Fore paws, hind paws, and knees were removed for microscopy.
Mice were weighed on arthritis days 1, 3, 5, 7, 9, and 11 (prior to necropsy). Daily clinical scores were given for each of the paws (right front, left front, right rear, left rear) on days 1–11 using the following criteria:
After 1–2 days in fixative and 4–5 days in 5% formic acid for decalcification, tissues were trimmed, processed for paraffin embedding, sectioned at 8 µm and stained with toluidine blue. Hind paws and knees were embedded and sectioned in the frontal plane. Two joints from each animal were processed for histopathology evaluation. The joints were then scored by two independent readers as indicated below. When scoring, severity of changes as well as number of individual joints affected were considered. When only 1–3 joints of the paws or ankles out of a possibility of numerous metacarpal/metatarsal/digit or tarsal/tibiotarsal joints were affected, an arbitrary assignment of a maximum score of 1, 2 or 3 for parameters below was given depending on severity of changes. If more than 3 joints were involved, the criteria below were applied to the most severely affected/majority of joints.

Compound: CN(Cc1cnc2nc(N)nc(N)c2n1)c1ccc(C(=O)N[C@@H](CCC(=O)O)C(=O)O)cc1 [MTX, methotrexate, reference compound]
- % inhibition to Vehicle, Paw Score Total AUC Sum (d1-11) (1.5 mg/kg PO): 12%
- Paw Score Total AUC Sum (d1-11) (1.5 mg/kg PO, group Mean): 28.46
- Paw Score Total AUC Sum (d1-11) (1.5 mg/kg PO, individual animals): 19.25 and 28.75 and 18.25 and 23.38 and 30.63 and 34.25 and 31.00 and 24.88 and 33.25 and 41.00
- % inhibition to Vehicle, Average Paw Score (Day 1, 1.5 mg/kg PO): 0%
- Average Paw Score Per Arthritis Day (All Paws) (Day 1, 1.5 mg/kg PO, group Mean): 0.80
- Average Paw Score Per Arthritis Day (All Paws) (Day 1, 1.5 mg/kg PO, individual animals, 1.5 mg/kg): 0.50 and 1.00 and 1.50
- % inhibition to Vehicle, Average Paw Score (Day 2, 1.5 mg/kg PO): 19%
- Average Paw Score Per Arthritis Day (All Paws) (Day 2, 1.5 mg/kg PO, group Mean): 1.48
- Average Paw Score Per Arthritis Day (All Paws) (Day 2, 1.5 mg/kg PO, individual animals, 1.5 mg/kg): 0.50 and 1.25 and 1.50 and 1.00 and 2.00 and 1.75 and 2.50
- % inhibition to Vehicle, Average Paw Score (Day 3, 1.5 mg/kg PO): 20%
- Average Paw Score Per Arthritis Day (All Paws) (Day 3, 1.5 mg/kg PO, group Mean): 2.13
- Average Paw Score Per Arthritis Day (All Paws) (Day 3, 1.5 mg/kg PO, individual animals, 1.5 mg/kg): 0.75 and 1.75 and 2.00 and 2.50 and 2.75 and 3.00
- % inhibition to Vehicle, Average Paw Score (Day 4, 1.5 mg/kg PO): 10%
- Average Paw Score Per Arthritis Day (All Paws) (Day 4, 1.5 mg/kg PO, group Mean): 2.85
- Average Paw Score Per Arthritis Day (All Paws) (Day 4, 1.5 mg/kg PO, individual animals, 1.5 mg/kg): 1.75 and 3.00 and 2.00 and 2.25 and 2.50 and 2.75 and 4.00
- % inhibition to Vehicle, Average Paw Score (Day 5, 1.5 mg/kg PO): 9%
- Average Paw Score Per Arthritis Day (All Paws) (Day 5, 1.5 mg/kg PO, group Mean): 3.15
- Average Paw Score Per Arthritis Day (All Paws) (Day 5, 1.5 mg/kg PO, individual animals, 1.5 mg/kg): 2.25 and 2.00 and 4.00 and 2.75 and 4.75
- % inhibition to Vehicle, Average Paw Score (Day 6, 1.5 mg/kg PO): 11%
- Average Paw Score Per Arthritis Day (All Paws) (Day 6, 1.5 mg/kg PO, individual animals, 1.5 mg/kg): 2.50 and 2.00 and 2.25 and 4.00 and 2.75 and 4.75
- % inhibition to Vehicle, Average Paw Score (Day 7, 1.5 mg/kg PO): 12%
- Average Paw Score Per Arthritis Day (All Paws) (Day 7, 1.5 mg/kg PO, individual animals, 1.5 mg/kg): 2.50 and 2.00 and 2.25 and 4.00 and 2.75 and 4.75
- % inhibition to Vehicle, Average Paw Score (Day 8, 1.5 mg/kg PO): 13%
- Average Paw Score Per Arthritis Day (All Paws) (Day 8, 1.5 mg/kg PO, individual animals, 1.5 mg/kg): 2.50 and 2.00 and 3.75 and 4.00 and 2.75 and 4.75
- % inhibition to Vehicle, Average Paw Score (Day 9, 1.5 mg/kg PO): 13%
- Average Paw Score Per Arthritis Day (All Paws) (Day 9, 1.5 mg/kg PO, individual animals, 1.5 mg/kg): 2.50 and 2.00 and 3.00 and 4.00 and 4.25 and 2.75 and 3.75 and 5.00
- % inhibition to Vehicle, Average Paw Score (Day 10, 1.5 mg/kg PO): 12%
- Average Paw Score Per Arthritis Day (All Paws) (Day 10, 1.5 mg/kg PO, individual animals, 1.5 mg/kg): 2.50 and 2.00 and 4.75 and 4.50 and 2.75 and 4.00 and 5.00
- % inhibition to Vehicle, Average Paw Score (Day 11, 1.5 mg/kg PO): 12%
- Average Paw Score Per Arthritis Day (All Paws) (Day 11, 1.5 mg/kg PO, individual animals, 1.5 mg/kg): 2.50 and 2.00 and 4.75 and 4.50 and 2.75 and 4.00 and 5.00
- % inhibition to Vehicle, Total AUC Sum (d1-11) (MTX 1.5 mg/kg PO): 21%
- Summed Prophylactic (Non-Enrollment) Paw Score (MTX 1.5 mg/kg PO, Day 1, group mean): 0.00
- Summed Prophylactic (Non-Enrollment) Paw Score (MTX 1.5 mg/kg PO, Day 1, individual animals): 0
- % inhibition to Vehicle, Summed Prophylactic (Non-Enrollment) Paw Score (MTX 1.5 mg/kg PO, Day 2): 38%
- Summed Prophylactic (Non-Enrollment) Paw Score (MTX 1.5 mg/kg PO, Day 2, group mean): 1.60
- Summed Prophylactic (Non-Enrollment) Paw Score (MTX 1.5 mg/kg PO, Day 2, individual animals): 0 and 2 and 1 and 5 and 4
- % inhibition to Vehicle, Summed Prophylactic (Non-Enrollment) Paw Score (MTX 1.5 mg/kg PO, Day 3): 30%
- Summed Prophylactic (Non-Enrollment) Paw Score (MTX 1.5 mg/kg PO, Day 3, group mean): 3.30
- Summed Prophylactic (Non-Enrollment) Paw Score (MTX 1.5 mg/kg PO, Day 3, individual animals): 0 and 3 and 1 and 4 and 7 and 8 and 5 and 2
- % inhibition to Vehicle, Summed Prophylactic (Non-Enrollment) Paw Score (MTX 1.5 mg/kg PO, Day 4): 20%
- Summed Prophylactic (Non-Enrollment) Paw Score (MTX 1.5 mg/kg PO, Day 4, group mean): 5.10
- Summed Prophylactic (Non-Enrollment) Paw Score (MTX 1.5 mg/kg PO, Day 4, individual animals): 3 and 4 and 1 and 6 and 10
- % inhibition to Vehicle, Summed Prophylactic (Non-Enrollment) Paw Score (MTX 1.5 mg/kg PO, Day 5): 19%
- Summed Prophylactic (Non-Enrollment) Paw Score (MTX 1.5 mg/kg PO, Day 5, group mean): 5.90
- Summed Prophylactic (Non-Enrollment) Paw Score (MTX 1.5 mg/kg PO, Day 5, individual animals): 5 and 4 and 1 and 9 and 12 and 10 and 6
- % inhibition to Vehicle, Summed Prophylactic (Non-Enrollment) Paw Score (MTX 1.5 mg/kg PO, Day 6): 21%
- Summed Prophylactic (Non-Enrollment) Paw Score (MTX 1.5 mg/kg PO, Day 6, group mean): 6.00
- Summed Prophylactic (Non-Enrollment) Paw Score (MTX 1.5 mg/kg PO, Day 6, individual animals): 6 and 4 and 1 and 9 and 12 and 10
- % inhibition to Vehicle, Summed Prophylactic (Non-Enrollment) Paw Score (MTX 1.5 mg/kg PO, Day 7): 22%
- Summed Prophylactic (Non-Enrollment) Paw Score (MTX 1.5 mg/kg PO, Day 7, group mean): 6.10
- Summed Prophylactic (Non-Enrollment) Paw Score (MTX 1.5 mg/kg PO, Day 7, individual animals): 6 and 5 and 4 and 1 and 9 and 12 and 10
- % inhibition to Vehicle, Summed Prophylactic (Non-Enrollment) Paw Score (MTX 1.5 mg/kg PO, Day 8): 22%
- Summed Prophylactic (Non-Enrollment) Paw Score (MTX 1.5 mg/kg PO, Day 8, group mean): 6.30
- Summed Prophylactic (Non-Enrollment) Paw Score (MTX 1.5 mg/kg PO, Day 8, individual animals): 6 and 5 and 4 and 2 and 10 and 12
- % inhibition to Vehicle, Summed Prophylactic (Non-Enrollment) Paw Score (MTX 1.5 mg/kg PO, Day 9): 20%
- Summed Prophylactic (Non-Enrollment) Paw Score (MTX 1.5 mg/kg PO, Day 9, group mean): 6.80
- Summed Prophylactic (Non-Enrollment) Paw Score (MTX 1.5 mg/kg PO, Day 9, individual animals): 6 and 5 and 4 and 3 and 11 and 13 and 10 and 7
- % inhibition to Vehicle, Summed Prophylactic (Non-Enrollment) Paw Score (MTX 1.5 mg/kg PO, Day 10): 16%
- Summed Prophylactic (Non-Enrollment) Paw Score (MTX 1.5 mg/kg PO, Day 10, group mean): 7.40
- Summed Prophylactic (Non-Enrollment) Paw Score (MTX 1.5 mg/kg PO, Day 10, individual animals): 6 and 5 and 4 and 14 and 10 and 8
- % inhibition to Vehicle, Summed Prophylactic (Non-Enrollment) Paw Score (MTX 1.5 mg/kg PO, Day 11): 16%
